Source: US11053241B2, “TYK2 inhibitors and uses thereof” (Nimbus Lakshmi, Inc., priority 2018, dated 2021)

Target: human TYK2 (JH2domain-pseudokinase) (Homo sapiens (Human), UniProt P29597)
Assay: TYK2 JH2 Domain Binding Assay (KINOMEscan)
Settings: 11-point 3-fold dilution, top concentration 30,000 nM, duplicate
Method: Binding constants for compounds of the present invention against the JH2 domain were determined by the following protocol for a KINOMEscan® assay (DiscoveRx). A fusion protein of a partial length construct of human TYK2 (JH2domain-pseudokinase) (amino acids G556 to D888 based on reference sequence NP_003322.3) and the DNA binding domain of NFkB was expressed in transiently transfected HEK293 cells. From these HEK 293 cells, extracts were prepared in M-PER extraction buffer (Pierce) in the presence of Protease Inhibitor Cocktail Complete (Roche) and Phosphatase Inhibitor Cocktail Set II (Merck) per manufacturers' instructions. The TYK2(JH2domain-pseudokinase) fusion protein was labeled with a chimeric double-stranded DNA tag containing the NFkB binding site (5′-GGGAATTCCC-3′) fused to an amplicon for qPCR readout, which was added directly to the expression extract (the final concentration of DNA-tag in the binding reaction is 0.1 nM).
Streptavidin-coated magnetic beads (Dynal M280) were treated with a biotinylated small molecule ligand for 30 minutes at room temperature to generate affinity resins for the binding assays. The liganded beads were blocked with excess biotin and washed with blocking buffer (SeaBlock (Pierce), 1% BSA, 0.05% Tween 20, 1 mM DTT) to remove unbound ligand and to reduce nonspecific binding.
The binding reaction was assembled by combining 16 μl of DNA-tagged kinase extract, 3.8 μl liganded affinity beads, and 0.18 μl test compound (PBS/0.05% Tween 20/10 mM DTT/0.1% BSA/2 μg/ml sonicated salmon sperm DNA). Extracts were used directly in binding assays without any enzyme purification steps at a ≥10,000-fold overall stock dilution (final DNA-tagged enzyme concentration <0.1 nM). Extracts were loaded with DNA-tag and diluted into the binding reaction in a two step process. First extracts were diluted 1:100 in 1× binding buffer (PBS/0.05% Tween 20/10 mM DTT/0.1% BSA/2 μg/ml sonicated salmon sperm DNA) containing 10 nM DNA-tag. This dilution was allowed to equilibrate at room temperature for 15 minutes and then subsequently diluted 1:100 in 1× binding buffer. All reactions were performed in polypropylene 384-well plates. Each was a final volume of 0.02 mL. Assays were incubated with shaking for 1 hour at room temperature. Then the beads were pelleted and washed with wash buffer (1×PBS, 0.05% Tween 20) to remove displaced kinase and test compound. The washed based were re-suspended in elution buffer (1×PBS, 0.05% Tween 20, 0.5 μM non-biotinylated affinity ligand) and incubated at room temperature with shaking for 30 minutes. The kinase concentration in the eluates was measured by qPCR. qPCR reactions were assembled by adding 2.5 μL of kinase eluate to 7.5 μL of qPCR master mix containing 0.15 μM amplicon primers and 0.15 μM amplicon probe. The qPCR protocol consisted of a 10 minute hot start at 95° C., followed by 35 cycles of 95° C. for 15 seconds, 60° C. for 1 minute.
Test compounds were prepared as 111× stocks in 100% DMSO. Kd values were determined using an 11-point 3-fold compound dilution series with three DMSO control points. All compounds for Kd measurements are distributed by acoustic transfer (non-contact dispensing) in 100% DMSO. The compounds were then diluted directly into the assays such that the final concentration of DMSO was 0.9%. The Kd values were determined using a compound top concentration of 30,000 nM. Kd measurements were performed in duplicate.
Binding constants (Kds) were calculated with a standard dose-response curve using the Hill equation: […]
The Hill Slope was set to −1. Curves were fitted using a non-linear least square fit with the Levenberg-Marquardt algorithm (Levenberg, K., A method for the solution of certain non-linear problems in least squares, Q. Appl. Math. 2, 164-168 (1944)).

Sequence of human TYK2 (JH2domain-pseudokinase) (P29597 556-888): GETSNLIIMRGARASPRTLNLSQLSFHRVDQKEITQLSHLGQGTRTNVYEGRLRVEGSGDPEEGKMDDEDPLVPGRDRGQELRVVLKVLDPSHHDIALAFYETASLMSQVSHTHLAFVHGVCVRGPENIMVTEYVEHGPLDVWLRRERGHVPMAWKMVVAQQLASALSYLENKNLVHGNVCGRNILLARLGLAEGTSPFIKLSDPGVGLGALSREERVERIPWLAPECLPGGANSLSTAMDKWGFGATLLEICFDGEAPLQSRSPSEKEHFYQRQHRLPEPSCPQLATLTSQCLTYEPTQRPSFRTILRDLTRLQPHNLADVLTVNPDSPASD

| SMILES | Kd |
| --- | --- |
| CNC(=O)c1cnc(NC(=O)C2CC2)c2[nH]c(-c3cccn(C4CCCOC4)c3=O)cc12 (stereo in doubt) [Compound I-55, (S)-7-(cyclopropanecarboxamido)-N-methyl-2-(2-oxo-1-(tetrahydro-2H-pyran-3-yl)-1,2-dihydropyridin-3-yl)-1H-pyrrolo[2,3-c]pyridine-4-carboxamide] | 0.2 to 1 nM |
| CNC(=O)c1cnc(NC(=O)C2CC2)c2[nH]c(-c3cccn(C4CCCOC4)c3=O)cc12 (stereo in doubt) [Compound I-56, (R)-7-(cyclopropanecarboxamido)-N-methyl-2-(2-oxo-1-(tetrahydro-2H-pyran-3-yl)-1,2-dihydropyridin-3-yl)-1H-pyrrolo[2,3-c]pyridine-4-carboxamide] | 0.2 to 1 nM |
| CNC(=O)c1cnc(NC(=O)C2CC2)c2[nH]c(-c3cccn(C4CCCOC4)c3=O)cc12 (stereo not drawn) [Compound I-43, 7-(cyclopropanecarboxamido)-N-methyl-2-(2-oxo-1-(tetrahydro-2H-pyran-3-yl)-1,2-dihydropyridin-3-yl)-1H-pyrrolo[2,3-c]pyridine-4-carboxamide] | 0.2 to 1 nM |
| CNC(=O)c1cnc(NC(=O)C2CC2)c2[nH]c(-c3cnccc3OC3CC3)cc12 [Compound I-44, 7-(cyclopropanecarboxamido)-2-(4-cyclopropoxypyridin-3-yl)-N-methyl-1H-pyrrolo[2,3-c]pyridine-4-carboxamide] | < 0.2 nM |
| CNC(=O)c1cnc(NC(=O)C2CC2)c2[nH]c(-c3ccccc3N3CCC(O)CC3)cc12 [Compound I-46, 7-(cyclopropanecarboxamido)-2-(2-(4-hydroxypiperidin-1-yl)phenyl)-N-methyl-1H-pyrrolo[2,3-c]pyridine-4-carboxamide] | 0.2 to 1 nM |
| CNC(=O)c1cnc(NC(=O)C2CC2)c2[nH]c(-c3ncc(C(=O)N(C)C)cc3F)cc12 [Compound I-51, 7-(cyclopropanecarboxamido)-2-(5-(dimethylcarbamoyl)-3-fluoropyridin-2-yl)-N-methyl-1H-pyrrolo[2,3-c]pyridine-4-carboxamide] | 0.2 to 1 nM |
| CNC(=O)c1cnc(NC(=O)C2CC2)c2[nH]c(-c3ccc(C(=O)N4CC(F)(F)C4)cn3)cc12 [Compound I-53, 7-(cyclopropanecarboxamido)-2-(5-(3,3-difluoroazetidine-1-carbonyl)pyridin-2-yl)-N-methyl-1H-pyrrolo[2,3-c]pyridine-4-carboxamide] | 0.2 to 1 nM |
| CNC(=O)c1cnc(NC(=O)C2CC2)c2[nH]c(-c3ccc(-c4nccn4C)cc3OC3CC3)cc12 [Compound I-57, 7-(cyclopropanecarboxamido)-2-(2-cyclopropoxy-4-(1-methyl-1H-imidazol-2-yl)phenyl)-N-methyl-11H-pyrrolo[2,3-c]pyridine-4-carboxamide] | 1 to 10 nM |
| CNC(=O)c1cnc(NC(=O)C2CC2)c2[nH]c(-c3ccc(-c4nccs4)cc3OC)cc12 [Compound I-60, 7-(cyclopropanecarboxamido)-2-(2-methoxy-4-(thiazol-2-yl)phenyl)-N-methyl-1H-pyrrolo[2,3-c]pyridine-4-carboxamide] | < 0.2 nM |
| CNC(=O)c1cnc(NC(=O)C2CC2)c2[nH]c(-c3ccc(C4COCCO4)cc3OC)cc12 (stereo not drawn) [Compound I-61, 2-(4-(1,4-dioxan-2-yl)-2-methoxyphenyl)-7-(cyclopropanecarboxamido)-N-methyl-1H-pyrrolo[2,3-c]pyridine-4-carboxamide] | > 10 nM |
| CNC(=O)c1cnc(NC(=O)C2CC2)c2[nH]c(-c3ccc(-n4ncnc4C)cc3F)cc12 [Compound I-65, 7-(cyclopropanecarboxamido)-2-(2-fluoro-4-(5-methyl-1H-1,2,4-triazol-1-yl)phenyl)-N-methyl-1H-pyrrolo[2,3-c]pyridine-4-carboxamide] | < 0.2 nM |
| CNC(=O)c1cnc(NC(=O)C2CC2)c2[nH]c(-c3ccc(-c4cnccn4)cc3F)cc12 [Compound I-66, 7-(cyclopropanecarboxamido)-2-(2-fluoro-4-(pyrazin-2-yl)phenyl)-N-methyl-1H-pyrrolo[2,3-c]pyridine-4-carboxamide] | < 0.2 nM |

Next, values leading:

| Kd | SMILES |
| --- | --- |
| 1 to 10 nM | CNC(=O)c1cnc(NC(=O)C2CC2)c2[nH]c(-c3cccc(N4CCC4)c3C#N)cc12 [Compound I-41, 2-(3-(azetidin-1-yl)-2-cyanophenyl)-7-(cyclopropanecarboxamido)-N-methyl-1H-pyrrolo[2,3-c]pyridine-4-carboxamide] |
| 0.2 to 1 nM | CNC(=O)c1cnc(NC(=O)C2CC2)c2[nH]c(-c3cccc(-c4cnn(C)c4)c3C#N)cc12 [Compound I-45, 2-(2-cyano-3-(1-methyl-1H-pyrazol-4-yl)phenyl)-7-(cyclopropane-carboxamido)-N-methyl-1H-pyrrolo[2,3-c]pyridine-4-carboxamide] |
| < 0.2 nM | CNC(=O)c1cnc(NC(=O)C2CC2)c2[nH]c(-c3cccc(-n4cnc(C)n4)c3F)cc12 [Compound I-47, 7-(cyclopropanecarboxamido)-2-(2-fluoro-3-(3-methyl-1H-1,2,4-triazol-1-yl)phenyl)-N-methyl-1H-pyrrolo[2,3-c]pyridine-4-carboxamide] |
| < 0.2 nM | CNC(=O)c1cnc(NC(=O)C2CC2)c2[nH]c(-c3cccc(-c4nc(C)cn4C)n3)cc12 [Compound I-49, 7-(cyclopropanecarboxamido)-2-(6-(1,4-dimethyl-1H-imidazol-2-yl)pyridin-2-yl)-N-methyl-1H-pyrrolo[2,3-c]pyridine-4-carboxamide] |
| 0.2 to 1 nM | CNC(=O)c1cnc(NC(=O)C2CC2)c2[nH]c(-c3cccc(-c4nnn(C)n4)c3)cc12 [Compound I-50, 7-(cyclopropanecarboxamido)-N-methyl-2-(3-(2-methyl-2H-tetrazol-5-yl)phenyl)-1H-pyrrolo[2,3-c]pyridine-4-carboxamide] |
| < 0.2 nM | CNC(=O)c1cnc(NC(=O)C2CC2)c2[nH]c(-c3ccc(-c4nccn4C)cc3F)cc12 [Compound I-58, 7-(cyclopropanecarboxamido)-2-(2-fluoro-4-(1-methyl-1H-imidazol-2-yl)phenyl)-N-methyl-11H-pyrrolo[2,3-c]pyridine-4-carboxamide] |
| 0.2 to 1 nM | CNC(=O)c1cnc(NC(=O)C2CC2)c2[nH]c(-c3cccc(-c4nnn(C)n4)c3OC)cc12 [Compound I-59, 7-(cyclopropanecarboxamido)-2-(2-methoxy-3-(2-methyl-2H-tetrazol-5-yl)phenyl)-N-methyl-1H-pyrrolo[2,3-c]pyridine-4-carboxamide] |
| < 0.2 nM | CNC(=O)c1cnc(NC(=O)C2CC2)c2[nH]c(-c3ccc(-c4nncn4C)cc3F)cc12 [Compound I-62, 7-(cyclopropanecarboxamido)-2-(2-fluoro-4-(4-methyl-4H-1,2,4-triazol-3-yl)phenyl)-N-methyl-1H-pyrrolo[2,3-c]pyridine-4-carboxamide] |
| 0.2 to 1 nM | CNC(=O)c1cnc(NC(=O)C2CC2)c2[nH]c(-c3cccc(-n4nccn4)c3F)cc12 [Compound I-63, 7-(cyclopropanecarboxamido)-2-(2-fluoro-3-(2H-1,2,3-triazol-2-yl)phenyl)-N-methyl-1H-pyrrolo[2,3-c]pyridine-4-carboxamide] |
| > 10 nM | CNC(=O)c1cnc(NC(=O)C2CC2)c2[nH]c(-c3ccc(-c4cn(C)nn4)cc3OC)cc12 [Compound I-64, 7-(cyclopropanecarboxamido)-2-(2-methoxy-4-(1-methyl-1H-1,2,3-triazol-4-yl)phenyl)-N-methyl-1H-pyrrolo[2,3-c]pyridine-4-carboxamide] |
| < 0.2 nM | CNC(=O)c1cnc(NC(=O)C2CC2)c2[nH]c(-c3cccc(-c4cn(C)c(C)n4)c3F)cc12 [Compound I-67] |
| < 0.2 nM | CNC(=O)c1cnc(NC(=O)C2CC2)c2[nH]c(-c3ccc(-c4ncc(C)n4C)cc3F)cc12 [Compound I-68, 7-(cyclopropanecarboxamido)-2-(4-(1,5-dimethyl-1H-imidazol-2-yl)-2-fluorophenyl)-N-methyl-1H-pyrrolo[2,3-c]pyridine-4-carboxamide] |
